Laboratory results published in patent publication US6555692B1, “Preparation and use of bifunctional molecules having DNA sequence binding specificity” (California Institute of Technology, priority 1996, dated 2003).

Assays:
5′-AACCAAGTACTTGGTA-3′ = assay: Association constants, recognition of 16 base pairs; type: binding; conditions: for Specificity 5′-AACCAACTAGTTGGTA: Table 8, center mismatch; for Specificity 5′-AACCAAGTACTTGCGA: Table 8, edge mismatch; for Ka 5′-AACCAAGTACTTGGTA: Table 8, match site
Text: Table 8 illustrates recognition of 16 Base-Pairs by ImPyPyPy-X-ImImPy-γ-PyPyPy-β-Dp.

5′-TGCGCA-3′ = assay: DNase I footprint titration, pSES9hp fragment; type: binding
Text: The experimental target plasmid pSES9hp was constructed by hybridization of the inserts:
The plasmid pSES9hp was linearized with EcoRI and PvuII and then treated with Klenow fragment, deoxyadenosine 5′-[α-^32P]triphosphate and thymidine 5′-[α-^32P]triphosphate for 3′ labeling. Alternatively, pSES9hp was linearized with EcoRI, treated with calf alkaline phosphatase, and then 5′ labeled with T4 polynucleotide kinase and deoxyadenosine 5′- [γ-^32P]triphosphate. The 5′ labeled fragment was then digested with PvuII. The labeled fragment (3′ or 5′) was loaded onto a 5% non-denaturing polyacrylamide gel, and the desired 282 base pair band was visualized by autoradiography and isolated. Chemical sequencing reactions were performed according to published methods. (Maxam, A. M. & Gilbert, W. S. (1980). Sequencing End-Labeled DNA with Base-Specific Chemical Cleavages. Methods Enzymol. 65, 499-560; Iverson, B. L. & Dervan, P. B. (1987). Adenine-specific DNA chemical sequencing reaction. […], 7823-7830.)

5′-TGTCAAGACA-3′ = assay: Recognition of 9-11 base pairs (Table 9); type: binding; conditions: 22° C. and pH 7.0
Text: (§1) Table 9 illustrates recognition of recognition of 9-11 base pairs by ImPyPy-X-ImPyPy-β-Dp.

5′-TGTCAAAGACA-3′ = assay: Recognition of 9-11 base pairs (Table 9); type: binding; conditions: 22° C. and pH 7.0
Text: as §1

5′-gcggtTGTCAacccg-3′ = assay: Recognition of 9-11 base pairs (Table 9); type: binding; conditions: 22° C. and pH 7.0
Text: as §1

5′-TGTCAGACA-3′ = assay: Recognition of 9-11 base pairs (Table 9); type: binding; conditions: 22° C. and pH 7.0
Text: as §1

5′-AGTATT-3′ = assay: Quantitative DNase I footprint titration, 229 bp restriction fragment; type: binding
Procedure: (§2) ImPyPyPy-γ-ImPyPyPy-β-Dp and ImPyPyPy-γ-PyPyPyPy-β-Dp were synthesized by solid phase methods and purified by reversed phase HPLC. Equilibrium association constants for match and mismatch six base pair binding sites on a 3′^32P-labeled 229 bp restricted fragment were determined by quantitative DNase I footprint titration experiments. […] The specificity of ImPyPyPy-γ-ImPyPyPy-β-Dp and ImPyPyPy-γ-PyPyPyPy-β-Dp for their respective match sites results from very small structural changes.

5′-TGTTA-3′ = conditions: cited from earlier work
5′-AGTACT-3′ = assay: Quantitative DNase I footprint titration, 229 bp restriction fragment; type: binding
Procedure: as §2

Compound | 5′-TGTCAAGACA-3′ (5′-TGTCAAGACA-3′) | 5′-TGTCAAAGACA-3′ (5′-TGTCAAAGACA-3′) | 5′-gcggtTGTCAacccg-3′ (5′-gcggtTGTCAacccg-3′) | 5′-TGTCAGACA-3′ (5′-TGTCAGACA-3′) | further results
CN(C)CCCNC(=O)CCNC(=O)c1cc(NC(=O)c2cc(NC(=O)c3cc(NC(=O)CCCNC(=O)c4cc(NC(=O)c5nc(NC(=O)c6nc(NC(=O)CCCCNC(=O)c7cc(NC(=O)c8cc(NC(=O)c9cc(NC(=O)c%10nccn%10C)cn9C)cn8C)cn7C)cn6C)cn5C)cn4C)cn3C)cn2C)cn1C [ImPyPyPy-C5-ImImPy-γ-PyPyPy-β-Dp] | – | – | – | – | Specificity 5′-AACCAACTAGTTGGTA (5′-AACCAAGTACTTGGTA-3′): >3; Specificity 5′-AACCAAGTACTTGCGA (5′-AACCAAGTACTTGGTA-3′): >3; Ka 5′-AACCAAGTACTTGGTA (5′-AACCAAGTACTTGGTA-3′): 7 × 10^8
Im-β-ImPy-γ-Im-β-ImPy-β-Dp [Im-βImPy-γ-Im-β-ImPy-β-Dp] | – | – | – | – | affinity (in words) (5′-TGCGCA-3′; 5′-TGCGCA-3′ sequences): subnanomolar affinities
CN(C)CCCNC(=O)CCNC(=O)c1cc(NC(=O)c2cc(NC(=O)c3nc(NC(=O)CCNC(=O)c4cc(NC(=O)c5cc(NC(=O)c6nccn6C)cn5C)cn4C)cn3C)cn2C)cn1C [ImPyPy-β-ImPyPy-β-Dp] | 2 × 10^8 | 1 × 10^9 | 1 × 10^9 | 2 × 10^8 | –
CN(C)CCCNC(=O)CCNC(=O)c1cc(NC(=O)c2cc(NC(=O)c3nc(NC(=O)CCNC(=O)CCNC(=O)CCNC(=O)c4cc(NC(=O)c5cc(NC(=O)c6nccn6C)cn5C)cn4C)cn3C)cn2C)cn1C [ImPyPy-β-β-β-ImPyPy-β-Dp] | 1 × 10^7 | 7 × 10^7 | 1 × 10^7 | 1 × 10^7 | –
CN(C)CCCNC(=O)CCNC(=O)c1cc(NC(=O)c2cc(NC(=O)c3cc(NC(=O)c4cc(NC(=O)CCCNC(=O)c5cc(NC(=O)c6cc(NC(=O)c7cc(NC(=O)c8nccn8C)cn7C)cn6C)cn5C)cn4C)cn3C)cn2C)cn1C [ImPyPyPy-γ-PyPyPyPy-β-Dp] | – | – | – | – | loss in binding energy (5′-AGTATT-3′; C—H to N replacement, 5′-AGTATT-3′ complex): ~1.3 kcal/mol; Kd (5′-AGTATT-3′; match site 5′-AGTATT-3′, read-out: concentration at which the match site is bound): 0.3 nM; lower affinity for single base pair mismatch site (5′-AGTATT-3′; mismatch 5′-AGTACT-3′ vs match 5′-AGTATT-3′): ~10 fold; reduction of affinity of the polyamide•5′-AGTATT-3′ complex on replacing a C—H with N (5′-AGTATT-3′; vs ImPyPyPy-γ-ImPyPyPy-β-Dp): ~10 fold
CN(C)CCCNC(=O)CCNC(=O)c1cc(NC(=O)c2cc(NC(=O)c3nc(NC(=O)CCCCCCNC(=O)c4cc(NC(=O)c5cc(NC(=O)c6nccn6C)cn5C)cn4C)cn3C)cn2C)cn1C [ImPyPy-C7-ImPyPy-β-Dp] | 1 × 10^8 | 3 × 10^7 | 7 × 10^7 | 2 × 10^7 | –
cyclo-(ImPyPy-γ-PyPyPy-γ-) | – | – | – | – | equilibrium association constant Ka (5′-TGTTA-3′; 5′-TGTTA-3′ target site, prior art): 2.9e+09 M⁻¹; increase in Ka relative to the corresponding hairpin polyamide ImPyPy-γ-PyPyPy (5′-TGTTA-3′; 5′-TGTTA-3′): 40 fold; sequence-specificity versus single base pair mismatch sites (5′-TGTTA-3′): 2 fold
CN(C)CCCNC(=O)CCNC(=O)c1cc(NC(=O)c2cc(NC(=O)c3nc(NC(=O)CCCCCCCNC(=O)c4cc(NC(=O)c5cc(NC(=O)c6nccn6C)cn5C)cn4C)cn3C)cn2C)cn1C [ImPyPy-C8-ImPyPy-β-Dp] | 3 × 10^7 | 1 × 10^7 | 1 × 10^7 | 1 × 10^7 | –
CN(C)CCCNC(=O)CCNC(=O)c1cc(NC(=O)c2cc(NC(=O)c3cc(NC(=O)CCCNC(=O)c4cc(NC(=O)c5nc(NC(=O)c6nc(NC(=O)CCNC(=O)CCNC(=O)c7cc(NC(=O)c8cc(NC(=O)c9cc(NC(=O)c%10nccn%10C)cn9C)cn8C)cn7C)cn6C)cn5C)cn4C)cn3C)cn2C)cn1C [ImPyPyPy-β-β-ImImPy-γ-PyPyPy-β-Dp] | – | – | – | – | Specificity 5′-AACCAACTAGTTGGTA (5′-AACCAAGTACTTGGTA-3′): 1; Specificity 5′-AACCAAGTACTTGCGA (5′-AACCAAGTACTTGGTA-3′): 1; Ka 5′-AACCAAGTACTTGGTA (5′-AACCAAGTACTTGGTA-3′): 3 × 10^8
CN(C)CCCNC(=O)CCNC(=O)c1cc(NC(=O)c2nc(NC(=O)c3cc(NC(=O)c4nc(NC(=O)CCCNC(=O)c5cc(NC(=O)c6nc(NC(=O)c7cc(NC(=O)c8nccn8C)cn7C)cn6C)cn5C)cn4C)cn3C)cn2C)cn1C [ImPyImPy-γ-ImPyImPy-β-Dp] | – | – | – | – | Ka (5′-TGCGCA-3′): 4e+07 M⁻¹; specificity (5′-TGCGCA-3′): 4 fold
CN(C)CCCNC(=O)CCNC(=O)c1cc(NC(=O)c2cc(NC(=O)c3nc(NC(=O)CCCCCNC(=O)c4cc(NC(=O)c5cc(NC(=O)c6nccn6C)cn5C)cn4C)cn3C)cn2C)cn1C [ImPyPy-C6-ImPyPy-β-Dp] | 2 × 10^8 | 5 × 10^7 | 5 × 10^7 | 1 × 10^8 | –
CN(C)CCCNC(=O)CCNC(=O)c1cc(NC(=O)c2cc(NC(=O)c3nc(NC(=O)CCNC(=O)c4cc(NC(=O)CCNC(=O)c5cc(NC(=O)c6cc(NC(=O)c7nccn7C)cn6C)cn5C)cn4C)cn3C)cn2C)cn1C [ImPyPy-β-Py-β-ImPyPy-β-Dp] | 2 × 10^8 | 1 × 10^9 | – | 3 × 10^8 | Ka (5′-gcggtTGTCAacccg-3′): < 1e+08 M⁻¹
ImPyPy-γ-PyPyPy-Dp | – | – | – | – | sequence-specificity versus single base pair mismatch sites (5′-TGTTA-3′): 30 fold
CN(C)CCCNC(=O)CCNC(=O)c1cc(NC(=O)c2cc(NC(=O)c3nc(NC(=O)CNC(=O)c4cc(NC(=O)c5cc(NC(=O)c6nccn6C)cn5C)cn4C)cn3C)cn2C)cn1C [ImPyPy-G-ImPyPy-β-Dp] | 3 × 10^7 | 3 × 10^7 | 3 × 10^7 | 1 × 10^8 | –
CN(C)CCCNC(=O)CCNC(=O)c1cc(NC(=O)c2cc(NC(=O)c3cc(NC(=O)c4nc(NC(=O)CCCNC(=O)c5cc(NC(=O)c6cc(NC(=O)c7cc(NC(=O)c8nccn8C)cn7C)cn6C)cn5C)cn4C)cn3C)cn2C)cn1C [ImPyPyPy-γ-ImPyPyPy-β-Dp] | – | – | – | – | free energy difference (5′-AGTACT-3′; N to C—H replacement, 5′-AGTACT-3′ complex): ~2.5 kcali/mole; Kd (5′-AGTACT-3′; match site 5′-AGTACT-3′, read-out: concentration at which the match site is bound): 0.03 nM; lower affinity for single base pair mismatch site (5′-AGTACT-3′; mismatch 5′-AGTATT-3′ vs match 5′-AGTACT-3′): ~100 fold; reduction of affinity of the polyamide•5′-AGTACT-3′ complex on replacing a single nitrogen atom with C—H (5′-AGTACT-3′; vs ImPyPyPy-γ-PyPyPyPy-β-Dp): ~75 fold
CN(C)CCCNC(=O)CCNC(=O)c1cc(NC(=O)c2cc(NC(=O)c3nc(NC(=O)CCCCCCCCCCNC(=O)c4cc(NC(=O)c5cc(NC(=O)c6nccn6C)cn5C)cn4C)cn3C)cn2C)cn1C [ImPyPy-C11-ImPyPy-β-Dp] | 2 × 10^7 | 2 × 10^7 | 1 × 10^7 | 5 × 10^6 | –
CN(C)CCCNC(=O)CCNC(=O)c1cc(NC(=O)c2cc(NC(=O)c3nc(NC(=O)CCNC(=O)CCNC(=O)c4cc(NC(=O)c5cc(NC(=O)c6nccn6C)cn5C)cn4C)cn3C)cn2C)cn1C [ImPyPy-β-β-ImPyPy-β-Dp] | 5 × 10^7 | 1 × 10^7 | 2 × 10^7 | 1 × 10^7 | –
CN(C)CCCNC(=O)CCNC(=O)c1cc(NC(=O)c2cc(NC(=O)c3cc(NC(=O)CCCNC(=O)c4cc(NC(=O)c5nc(NC(=O)c6nc(NC(=O)CCCCCNC(=O)c7cc(NC(=O)c8cc(NC(=O)c9cc(NC(=O)c%10nccn%10C)cn9C)cn8C)cn7C)cn6C)cn5C)cn4C)cn3C)cn2C)cn1C [ImPyPyPy-C6-ImImPy-γ-PyPyPy-β-Dp] | – | – | – | – | Specificity 5′-AACCAACTAGTTGGTA (5′-AACCAAGTACTTGGTA-3′): 1; Specificity 5′-AACCAAGTACTTGCGA (5′-AACCAAGTACTTGGTA-3′): 1; Ka 5′-AACCAAGTACTTGGTA (5′-AACCAAGTACTTGGTA-3′): 1 × 10^8
